In the NIST ThermoML archive (doi:10.1016/j.jct.2015.05.024):

Assay: xn = mol fraction of the nth substance listed
Settings: 100 kPa, Liquid; for mass density: Vibrating tube method; for speed of sound: Frequency=5 MHz, Pulse-echo method

OCCOCCOCCO [triethylene glycol] + O
Settings	mass density [kg/m3]	speed of sound [m/s]
313.15 K, x1 = 0.8975	1107.54	–
313.15 K, x1 = 0.9203	1107.65	–
313.15 K, x1 = 0.9514	1107.8	–
313.15 K, x1 = 0.9692	1107.89	–
313.15 K, x1 = 1	1108.03	–
318.15 K, x1 = 0.000584	–	1538.5
318.15 K, x1 = 0.002006	–	1542.9
318.15 K, x1 = 0.004375	–	1550
318.15 K, x1 = 0.01026	–	1566.6
318.15 K, x1 = 0.0107	1001.51	–
318.15 K, x1 = 0.01483	–	1578.5
318.15 K, x1 = 0.02047	1010.75	–
318.15 K, x1 = 0.0207	–	1592.6
318.15 K, x1 = 0.02817	–	1608.6
318.15 K, x1 = 0.0344	–	1620.5
318.15 K, x1 = 0.03972	1026.32	–
318.15 K, x1 = 0.04361	–	1635.9
318.15 K, x1 = 0.04979	1033.27	–
318.15 K, x1 = 0.05146	–	1647.1
318.15 K, x1 = 0.05903	–	1656.4
318.15 K, x1 = 0.06571	–	1663.4
318.15 K, x1 = 0.06996	1045.13	–
318.15 K, x1 = 0.07299	–	1670
318.15 K, x1 = 0.08294	–	1677.4
318.15 K, x1 = 0.09126	–	1682.2
318.15 K, x1 = 0.09424	1056.41	–
318.15 K, x1 = 0.09661	–	1684.8
318.15 K, x1 = 0.1018	–	1686.8
318.15 K, x1 = 0.1056	–	1688.1
318.15 K, x1 = 0.1135	–	1690.2
318.15 K, x1 = 0.1255	–	1692.2
318.15 K, x1 = 0.1394	–	1692.8
318.15 K, x1 = 0.1396	–	1692.8
318.15 K, x1 = 0.1432	–	1692.7
318.15 K, x1 = 0.1481	1073.27	–
318.15 K, x1 = 0.1521	–	1692.1
318.15 K, x1 = 0.1731	–	1689
318.15 K, x1 = 0.1931	–	1684.5
318.15 K, x1 = 0.2006	1082.92	–
318.15 K, x1 = 0.2076	–	1680.7
318.15 K, x1 = 0.2502	1088.64	–
318.15 K, x1 = 0.2511	–	1667.7
318.15 K, x1 = 0.2988	1092.38	–
318.15 K, x1 = 0.3044	–	1651.8
318.15 K, x1 = 0.3492	1095.09	–
318.15 K, x1 = 0.3572	–	1637.7
318.15 K, x1 = 0.3925	1096.8	–
318.15 K, x1 = 0.4142	–	1624.4
318.15 K, x1 = 0.4502	1098.53	–
318.15 K, x1 = 0.4877	1099.4	–
318.15 K, x1 = 0.4989	–	1607.6
318.15 K, x1 = 0.5004	1099.66	–
318.15 K, x1 = 0.5739	1100.92	–
318.15 K, x1 = 0.58	1101	–
318.15 K, x1 = 0.6427	–	1585.5
318.15 K, x1 = 0.6465	1101.82	–
318.15 K, x1 = 0.651	1101.87	–
318.15 K, x1 = 0.7008	1102.35	–
318.15 K, x1 = 0.7471	1102.73	–
318.15 K, x1 = 0.7677	1102.88	–
318.15 K, x1 = 0.7971	–	1571.3
318.15 K, x1 = 0.82	1103.22	–
318.15 K, x1 = 0.8623	1103.46	–
318.15 K, x1 = 0.8792	1103.55	–
318.15 K, x1 = 0.8865	–	1565.1
318.15 K, x1 = 0.8975	1103.64	–
318.15 K, x1 = 0.9203	1103.76	–
318.15 K, x1 = 0.9514	1103.9	–
318.15 K, x1 = 0.9641	–	1559.6
318.15 K, x1 = 0.9692	1103.99	–
318.15 K, x1 = 1	1104.13	1554.7
323.15 K, x1 = 0.0107	999.177	–
323.15 K, x1 = 0.02047	1008.26	–
323.15 K, x1 = 0.03972	1023.56	–
323.15 K, x1 = 0.04979	1030.37	–
323.15 K, x1 = 0.06996	1041.99	–
323.15 K, x1 = 0.09424	1053.04	–
323.15 K, x1 = 0.1481	1069.57	–
323.15 K, x1 = 0.2006	1079.07	–
323.15 K, x1 = 0.2502	1084.73	–
323.15 K, x1 = 0.2988	1088.45	–
323.15 K, x1 = 0.3492	1091.15	–
323.15 K, x1 = 0.3925	1092.88	–
323.15 K, x1 = 0.4502	1094.61	–
323.15 K, x1 = 0.4877	1095.48	–
323.15 K, x1 = 0.5004	1095.75	–
323.15 K, x1 = 0.5739	1097.01	–
323.15 K, x1 = 0.58	1097.09	–
323.15 K, x1 = 0.6465	1097.92	–
323.15 K, x1 = 0.651	1097.96	–
323.15 K, x1 = 0.7008	1098.44	–
323.15 K, x1 = 0.7471	1098.82	–
323.15 K, x1 = 0.7677	1098.97	–
323.15 K, x1 = 0.82	1099.31	–
323.15 K, x1 = 0.8623	1099.56	–
323.15 K, x1 = 0.8792	1099.64	–
323.15 K, x1 = 0.8975	1099.74	–
323.15 K, x1 = 0.9203	1099.85	–
323.15 K, x1 = 0.9514	1100	–
323.15 K, x1 = 0.9692	1100.08	–
323.15 K, x1 = 1	1100.22	–
328.15 K, x1 = 0.0107	996.693	–
328.15 K, x1 = 0.02047	1005.64	–
328.15 K, x1 = 0.03972	1020.67	–
328.15 K, x1 = 0.04979	1027.35	–
328.15 K, x1 = 0.06996	1038.74	–
328.15 K, x1 = 0.09424	1049.58	–
328.15 K, x1 = 0.1481	1065.82	–
328.15 K, x1 = 0.2006	1075.2	–
328.15 K, x1 = 0.2502	1080.82	–
328.15 K, x1 = 0.2988	1084.52	–
328.15 K, x1 = 0.3492	1087.21	–
328.15 K, x1 = 0.3925	1088.93	–
328.15 K, x1 = 0.4502	1090.66	–
328.15 K, x1 = 0.4877	1091.55	–
328.15 K, x1 = 0.5004	1091.81	–
328.15 K, x1 = 0.5739	1093.08	–
328.15 K, x1 = 0.58	1093.16	–
328.15 K, x1 = 0.6465	1093.99	–
328.15 K, x1 = 0.651	1094.04	–
328.15 K, x1 = 0.7008	1094.53	–
328.15 K, x1 = 0.7471	1094.91	–
328.15 K, x1 = 0.7677	1095.06	–
328.15 K, x1 = 0.82	1095.4	–
328.15 K, x1 = 0.8623	1095.64	–
328.15 K, x1 = 0.8792	1095.73	–
328.15 K, x1 = 0.8975	1095.83	–
328.15 K, x1 = 0.9203	1095.94	–
328.15 K, x1 = 0.9514	1096.09	–
328.15 K, x1 = 0.9692	1096.17	–
328.15 K, x1 = 1	1096.3	–
333.15 K, x1 = 0.0107	994.065	–
333.15 K, x1 = 0.02047	1002.89	–
333.15 K, x1 = 0.03972	1017.67	–
333.15 K, x1 = 0.04979	1024.24	–
333.15 K, x1 = 0.06996	1035.42	–
333.15 K, x1 = 0.09424	1046.06	–
333.15 K, x1 = 0.1481	1062.02	–
333.15 K, x1 = 0.2006	1071.28	–
333.15 K, x1 = 0.2502	1076.84	–
333.15 K, x1 = 0.2988	1080.53	–
333.15 K, x1 = 0.3492	1083.23	–
333.15 K, x1 = 0.3925	1084.95	–
333.15 K, x1 = 0.4502	1086.7	–
333.15 K, x1 = 0.4877	1087.58	–
333.15 K, x1 = 0.5004	1087.85	–
333.15 K, x1 = 0.5739	1089.13	–
333.15 K, x1 = 0.58	1089.21	–
333.15 K, x1 = 0.6465	1090.05	–
333.15 K, x1 = 0.651	1090.1	–
333.15 K, x1 = 0.7008	1090.59	–
333.15 K, x1 = 0.7471	1090.97	–
333.15 K, x1 = 0.7677	1091.13	–
333.15 K, x1 = 0.82	1091.47	–
333.15 K, x1 = 0.8623	1091.71	–
333.15 K, x1 = 0.8792	1091.81	–
333.15 K, x1 = 0.8975	1091.9	–
333.15 K, x1 = 0.9203	1092.01	–
333.15 K, x1 = 0.9514	1092.16	–
333.15 K, x1 = 0.9692	1092.24	–
333.15 K, x1 = 1	1092.38	–
